# Biological target: P. falciparum apicoplast DNA polymerase (Pf-apPOL) (Plasmodium falciparum, UniProt Q8ILY1)
# Assay: Fluorescence-based high-throughput DNA polymerase assay (molecular beacon), primary screen and dose-response
# Type: biochemical
# Settings: for DNA Pol: unit not given, 90 min, 10 µM; for % inhibition apPOL 180' 2.5 / % inhibition apPOL 180' 5 / % inhibition apPOL 180' 10 / % inhibition apPOL 180' 20 / % inhibition apPOL 180' 40 / % inhibition apPOL 180' 80: read at 180'
# How it was run: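 Single-point screening used 10 µM compound with 20 nM polymerase, 20 nM hairpin substrate and 6 µM dNTPs for 90 min at 25 °C. Confirmatory titrations (2.5–80 µM) followed fluorescence at three times, and IC50 was derived from a fit including a cooperativity term n.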
# P. falciparum apicoplast DNA polymerase (Pf-apPOL), sequence (Q8ILY1 entry or part of it): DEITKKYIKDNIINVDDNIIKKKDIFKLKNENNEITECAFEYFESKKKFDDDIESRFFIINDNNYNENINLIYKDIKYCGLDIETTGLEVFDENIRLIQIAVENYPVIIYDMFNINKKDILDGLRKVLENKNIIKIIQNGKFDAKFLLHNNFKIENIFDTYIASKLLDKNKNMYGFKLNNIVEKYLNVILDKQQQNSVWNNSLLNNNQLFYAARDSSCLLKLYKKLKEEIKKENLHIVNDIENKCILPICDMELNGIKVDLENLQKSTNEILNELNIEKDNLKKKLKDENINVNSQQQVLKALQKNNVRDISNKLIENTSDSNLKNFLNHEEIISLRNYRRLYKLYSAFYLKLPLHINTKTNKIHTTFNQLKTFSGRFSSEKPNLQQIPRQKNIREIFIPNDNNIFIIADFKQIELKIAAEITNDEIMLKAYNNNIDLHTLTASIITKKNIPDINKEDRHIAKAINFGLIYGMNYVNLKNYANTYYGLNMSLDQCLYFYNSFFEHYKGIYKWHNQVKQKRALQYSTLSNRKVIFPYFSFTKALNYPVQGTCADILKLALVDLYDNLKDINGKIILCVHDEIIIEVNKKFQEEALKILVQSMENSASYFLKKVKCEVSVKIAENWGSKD
structure (smiles),measurement,setting,value
"Cc1ccc(N2CCC(NC(=O)Cc3cccs3)C2=O)cc1C (stereo not drawn) [Molecule 57, O=C(NC1CCN(C1=O)c1ccc(c(c1)C)C)Cc1cccs1]",DNA Pol,"186 hits, DNA Pol (screen value)",30
same,DNA Pol,'DNA Pol' (screen value),30
same,% inhibition Apo pol 10' 2.5,"DRC-1, read at 10', concentration 2.5",-4.081%
same,% inhibition Apo pol 10' 5,"DRC-1, read at 10', concentration 5",5.106%
same,% inhibition Apo pol 10' 10,"DRC-1, read at 10', concentration 10",22.9359%
same,% inhibition Apo pol 10' 20,"DRC-1, read at 10', concentration 20",41.5954%
same,% inhibition Apo pol 10' 40,"DRC-1, read at 10', concentration 40",44.443%
same,% inhibition Apo pol 10' 80,"DRC-1, read at 10', concentration 80",44.3208%
same,% inhibition Apol 90' 2.5,"DRC-1, read at 90', concentration 2.5",-2.123%
same,% inhibition Apol 90' 5,"DRC-1, read at 90', concentration 5",4.8282%
same,% inhibition Apol 90' 10,"DRC-1, read at 90', concentration 10",19.3171%
same,% inhibition Apol 90' 20,"DRC-1, read at 90', concentration 20",42.7079%
same,% inhibition Apol 90' 40,"DRC-1, read at 90', concentration 40",53.5477%
same,% inhibition Apol 90' 80,"DRC-1, read at 90', concentration 80",61.4172%
same,% inhibition apPOL 180' 2.5,"DRC-1, concentration 2.5",-1.073%
same,% inhibition apPOL 180' 5,"DRC-1, concentration 5",1.4295%
same,% inhibition apPOL 180' 10,"DRC-1, concentration 10",11.4485%
same,% inhibition apPOL 180' 20,"DRC-1, concentration 20",30.1368%
same,% inhibition apPOL 180' 40,"DRC-1, concentration 40",47.6529%
same,% inhibition apPOL 180' 80,"DRC-1, concentration 80",62.3607%
same,% inhibition Apo pol 5',"DRC-2, concentration 10",24%
same,% inhibition Apo pol 5',"DRC-2, concentration 20",24%
same,% inhibition ApPOL 90',"DRC-2, concentration 20",47%
same,% inhibition ApPOL 90',"DRC-2, concentration 40",47%
same,% inhibition Apo pol 5' 2.5,"DRC-2, read at 5', concentration 2.5",-1.72%
same,% inhibition Apo pol 5' 5,"DRC-2, read at 5', concentration 5",2.54%
same,% inhibition Apo pol 5' 10,"DRC-2, read at 5', concentration 10",24%
same,% inhibition Apo pol 5' 20,"DRC-2, read at 5', concentration 20",24%
same,% inhibition Apo pol 5' 40,"DRC-2, read at 5', concentration 40",6.44%
same,% inhibition Apo pol 5' 80,"DRC-2, read at 5', concentration 80",-4.26%
same,% inhibition Apol 40' 2.5,"DRC-2, read at 40', concentration 2.5",-1.82%
same,% inhibition Apol 40' 5,"DRC-2, read at 40', concentration 5",5.58%
same,% inhibition Apol 40' 10,"DRC-2, read at 40', concentration 10",32%
same,% inhibition Apol 40' 20,"DRC-2, read at 40', concentration 20",44%
same,% inhibition Apol 40' 40,"DRC-2, read at 40', concentration 40",39%
same,% inhibition Apol 40' 80,"DRC-2, read at 40', concentration 80",37%
same,% inhibition ApPOL 90' 2.5,"DRC-2, read at 90', concentration 2.5",-2.11%
same,% inhibition ApPOL 90' 5,"DRC-2, read at 90', concentration 5",5%
same,% inhibition ApPOL 90' 10,"DRC-2, read at 90', concentration 10",30%
same,% inhibition ApPOL 90' 20,"DRC-2, read at 90', concentration 20",47%
same,% inhibition ApPOL 90' 40,"DRC-2, read at 90', concentration 40",47%
same,% inhibition ApPOL 90' 80,"DRC-2, read at 90', concentration 80",48%
same,% inhibition apPOL 180' 2.5,"DRC-2, concentration 2.5",-1.11%
same,% inhibition apPOL 180' 5,"DRC-2, concentration 5",3.34%
same,% inhibition apPOL 180' 10,"DRC-2, concentration 10",22%
same,% inhibition apPOL 180' 20,"DRC-2, concentration 20",43%
same,% inhibition apPOL 180' 40,"DRC-2, concentration 40",49%
same,% inhibition apPOL 180' 80,"DRC-2, concentration 80",55%

# Reference: article PMC9090415, “Discovery of small molecule inhibitors of Plasmodium falciparum apicoplast DNA polymerase” (Journal of Enzyme Inhibition and Medicinal Chemistry, 2022)
